According to patent US20170216426A1, “COMPOSITIONS AND METHODS FOR TRANSIENT IMMUNE RESPONSE MODULATION DURING VACCINATION” (priority 2014, published 2017):
Entries after “also recorded” stand apart in the source; their conditions may differ.

What was measured:
[1] = system: 2F5 dKI mice; conditions: 2F5 dKI mice treated with chloroquine for one week
[2] = system: 3H9 mice
From the text: Specific B-lineage developmental compartments were identified as described^1: CD43^+ B (pre-pro-B and pro-B; B220^lowCD93^+IgM^−IgD^−CD43^+), large pre-B (B220^lowCD93^+IgM^− IgD^−CD43^−FSC^high), small pre-B (B220^lowCD93^+IgM^−IgD^−CD43^−FSC^low), immature/T1 B (B220^lowCD93^+IgM^+IgD^+/−CD21^−CD23^−) and mature B (B220^hiCD93^−) cells in bone marrow, and splenic MF B (B220^hiCD93^−IgM^intIgD^hiCD21^intCD23^hi) cells of naïve mice, and germinal center B (GL-7^+B220^highFas^+IgD^−) cells in spleen of NP-CGG/alum immunized mice. Specific developmental compartments were designated for B6, and then identical gatings were used for all samples. Cells that take up propidium iodide were excluded from our analyses. Labeled cells were analyzed/sorted in a FACS Canto (BD Bioscience) or FACS Vantage with DIVA option (BD Bioscience). Flow cytometric data were analyzed with FlowJo software (Treestar Inc.).

[3] = system: immature/T1 B cells; experiment: AID mRNA expression in cultured immature/T1 B cells (quantitative RT-PCR); type: cell-based, mice
Protocol: Twenty-four hours after culture, B cells were harvested in TRIzol-LS reagent for AID mRNA quantification.
Expression of AID mRNA was determined by a quantitative RT-PCR^1. Briefly, sorted immature/T1 and mature follicular B cells were lysed in TRIzol LS before and after cultures. Total RNA was prepared from these cells using standard phenol/chloroform extraction method, and then cDNA was prepared using SuperScript III reverse transcriptase (Invitrogen) with oligo(dT)20 primers (Invitrogen). One-twentieth volume of cDNA samples were amplified in a primary PCR using Ramp-Taq DNA polymerase (Denville Scientific) with AID118 and AID119 primers^14. Primary PCR condition: initial incubation of 95° C. for 7 min followed by 15 cycles of amplification steps (95° C. for 30 s, 58° C. for 20 sec, and 72° C. for 45 sec.). Primary PCR products were then subjected to quantitative PCR using SYBR Green core reagents and AIDF2/AIDR2 primers^5.

[4] = Humoral responses after chloroquine treatment (FIG. 17); type: in vivo
[5] = system: 2F5 dKI mice; experiment: Spleen B-cell numbers and GC responses in 2F5 dKI mice after chloroquine, MPER liposome immunization and anti-CD25 Ab (FIG. 20); type: in vivo
[6] = system: 3H9 mice; experiment: DNA avidity index of single immature/T1 B-cell N-cultures from treated 3H9 mice (ELISA); type: in vivo
Protocol: Single immature/T1 B cells and MF B cells from unimmunized B6 and Myd88^−/− mice, and control- and chloroquine-treated 3H9 mice were expanded in the presence of NB-21.2D9 feeder cells (N-cultures). Briefly, single immature/T1 B cells and MF B cells were directly sorted into each well of 96-well plates and cultured in the presence of exogenous recombinant IL-4 (2 ng/ml, Peprotech) and CD154-/BAFF-/IL-21-expressing NB-21.2D9 cells in RPMI 1640 (Invitrogen) supplemented with 10% HyClone FBS (Thermo scientific), 2-mercaptoethanol (5.5×10^−5 M), penicillin (100 units/ml), streptomycin (100 μg/ml), HEPES (10 mM), sodiumpyruvate (1 mM), and MEM nonessential amino acid (1×; all Invitrogen). Two thirds of culture media were replaced with fresh media daily from day 2 to day 8. On days 9-10, culture supernatants were harvested for ELISA determinations.
Concentrations of total IgG in culture supernatants were determined by standard ELISA. Briefly, 96-well ELISA plates (Corning) were coated with anti-mouse Igκ Ab and anti-mouse Igλ Ab (2 μg/ml each; Southern Biotech) in carbonate buffer for overnight. After washing, plates were blocked with PBS containing 0.5% BSA for 1 h. Diluted samples (at 1:100 and 1:1,000 dilutions in PBS containing 0.5% BSA and 0.1% Tween-20) and serially diluted standard anti-DNA mAb (HYB331-01; Abcam) were then applied to the plates and incubated for overnight. After washing, HRP-conjugated anti-mouse IgG (Southern Biotech) was added to the plates and incubated for 2 h. The HRP-activity was visualized with TMB substrate reagents (Biolegend) and OD450-OD620 was measured by spectrophotometer (Bio-Rad).
Anti-DNA IgG was measured by ELISA^19. […] Bound IgG was detected by HRP-conjugated anti-mouse IgG and TMB substrates as described above. […]
DNA avidity index, [anti-DNA IgG]/[total IgG], represents proportion of DNA-binding IgG to total IgG in reference to the anti-DNA mAb. To compare DNA avidity indices of individual immature/T1 B cells from control- and chloroquine-treated 3H9 mice, culture supernatant samples that contain total IgG (range: 1-3 μg/ml) were analyzed. […]

[7] = system: human CD40 expressing HEK blue cells; experiment: HEK-Blue CD40L cells SEAP reporter assay of CD40L bioactivity; type: cell-based; conditions: liposome-conjugated vs non-conjugated
From the text: HEK-Blue CD40L cells (Invivogen) were used to measure the bioactivity of CD40L through the secretion of embryonic alkaline phosphatase (SEAP) upon NF-κB activation following CD40 stimulation.

[8] = chloroquine-treated vs control 3H9 mice

## CCN(CC)CCCC(C)Nc1ccnc2cc(Cl)ccc12 (stereo not shown) [chloroquine]
[1]
  splenic mature B-cell compartments: increases
[2]; 3H9 mice, multiple i.p. injections of chloroquine for up to 8 days, bone marrow
  numbers of large- and small pre-B cells: decreased
[2]; mice treated with chloroquine
  central B-cell tolerance: relaxed
[3]; in the presence of 2.0 μg/ml of chloroquine, 24 h culture
  AID expression in immature/T1 B cells elevated by CpG or CpG+anti-μ stimulation: abrogated
[3]; in vitro
  synergistic AID up-regulation: blocked
[4]
  duration of suppression of humoral responses: < 1 week
[5]; consecutive injections with chloroquine and MPER liposome, 14 days after last chloroquine injection, 12 days after immunization
  absolute cell numbers of splenic transitional-1 (T1) and T2: increased
[5]; injections of chloroquine
  tolerizing deletion of 2F5 dKI B cells: release
[5]; vs controls (PBS+control IgG), after MPER liposome immunization
  GC responses: abolished
[6]; DNA avidity index 0.178 cut-off (average of control 3H9), chloroquine-treated 3H9 mice
  frequency of immature/T1 B cells with higher DNA avidity: increased
[6]; [8]
  average anti-DNA avidity indices of individual immature/T1 B cells: significantly higher; also recorded: more avidly
  distribution of anti-DNA avidity indices: shifted toward higher avidity cohorts

## CCCCO [n-butanol]
[3]; addition of n-butanol (0.1, 0.3, 1.0%)
  AID expression in immature/T1 B cells stimulated with CpG: did not significantly change
[3]; n-butanol at 1.0%
  synergistic effects of CpG and anti-μ co-stimulation on AID expression in immature/T1 B cells: completely abrogated
[3]; n-butanol, dose-dependent
  synergistic effects of CpG and anti-μ co-stimulation on AID expression in immature/T1 B cells: suppressed

B1: CD40L: CD40 ligand conjugated to liposomes (protein, UniProt P29965 113-261, looked up)
CD40 ligand, soluble form: MQKGDQNPQIAAHVISEASSKTTSVLQWAEKGYYTMSNNLVTLENGKQLTVKRQGLYYIYAQVTFCSNREASSQAPFIASLCLKSPGRFERILLRAANTHSSAKPCGQQSIHLGGVFELQPGASVFVNVTDPSQVSHGTGFTSFGLLKL
modifications: conjugated to liposomes
[7]
  effect of liposome conjugation on CD40 activation: enhances
